Data on five molecules can be found in US11351151B2, “Compound having anticancer activity and preparation method and application” (3D Medicines (Beijing) Co., Ltd., priority 2016, dated 2022).

Bounds are passed on as bounds.

For data set [1], the system named is Alexander cells. Nature of the data set: Cell proliferation assay (Alamar Blue). The following applies: 144 h, liver cancer cell line, 6 days. The data set is classed as cell-based. The gist of the method: (§1)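 The compounds were tested over nine concentrations diluted 3.16-fold from a top dose of 30 or 100 μM, added 4 h after seeding log-phase cells at 500–1×10^4 per well. Plates were incubated for 6 days, then AlamarBlue fluorescence was read and IC50 values obtained by nonlinear regression.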
Background: Alamar Blue is a resazurin reagent that responds to reducing activity.

Data set [2] has as its system HEPG2. Nature of the data set: Cell proliferation assay (Alamar Blue). The class given is cell-based. To be noted: Homo sapiens, 144 h; HEPG2 liver cancer cell line; 6 days. The gist of the method:
as §1

In data set [3] the test system is HUH1. The data set can be described thus: Cell proliferation assay (Alamar Blue). The class given is cell-based. To be noted: Homo sapiens, HuH-1, 144 h; HUH1 liver cancer cell line; 6 days. The gist of the method: as §1
Data set [4] deals with JHH4. The data set can be described thus: Cell proliferation assay (Alamar Blue). To be noted: JHH-4, 144 h; JHH4 liver cancer cell line; 6 days. The data set is classed as cell-based. In short, it runs like this: as §1
In data set [5] the test system is LNCAP-clone-FGC. The data set can be described thus: Cell proliferation assay (Alamar Blue). The class given is cell-based. The following applies: Homo sapiens, 144 h; LNCAP-clone-FGC tumor cell line; 6 days. In short, it runs like this:
as §1

The subject of data set [6] is Li-7. The data set can be described thus: Cell proliferation assay (Alamar Blue). To be noted: 144 h; Li-7 liver cancer cell line; 6 days. The class given is cell-based. The gist of the method:
as §1

For data set [7], the system named is NCl-H716. The data set can be described thus: Cell proliferation assay (Alamar Blue). The data set is classed as cell-based. To be noted: 144 h; NCl-H716 tumor cell line; 6 days. In short, it runs like this:
as §1

Data set [8] relates to TE-15. The data set can be described thus: Cell proliferation assay (Alamar Blue). The class given is cell-based. To be noted: Homo sapiens, 144 h; TE-15 tumor cell line; 6 days. In short, it runs like this: as §1
In data set [9] the test system is 26 liver cancer cell lines. Nature of the data set: Cell proliferation assay (Alamar Blue), summary over liver cancer lines. The data set is classed as cell-based. How it is done: (§2) 1. Instruments and Materials • Thermo 311 CO2 incubator; Haier biosafety cabinet; Molecular Devices microplate reader; Xiangyi brand L530 desktop low speed centrifuge; Olympus IX51 inverted fluorescence microscope, DMEM, RPMI 1640, MEM, DMEM/F12 1:1 medium, Fetal bovine serum, 0.25% trypsin solution, phosphate buffer (Thermo Fisher Shanghai Co., Ltd.); sigma dimethyl sulfoxide (DMSO), resazurin; 54 commercial tumor cell lines (including 26 liver cancer cell lines). Experimental drugs: compounds 1-12 and active drug Linifanib; chemotherapeutic drug Doxorubicin (HY-15142; Shanghai Qianyuan Biomedical Technology Co., Ltd.).
2. […] The proportion and quantity of passage were determined by experimental needs. The ratio of subculture of this cell line was generally 1:2^˜1:3. • 2.2 inhibition effect on the proliferation of different tumor cell lines • Cell test: 54 cell lines in logarithmic growth phase were inoculated in 96-well culture plates at 500^˜1×10^4/well (the optimal seeding density of each cell line was determined in pre-experiment), After incubating at 37° C. for 4 h in a 5% CO2 humidification incubator, added 10 μL of compounds 1-12 or Linifanib to each well, and tested 9 drug concentration gradients for each compound (diluted from the highest concentration of the test by 3.16 times). […]

The nature of data set [10]: Plasma incubation stability study. The class given is in vitro ADME, SD rat. To be noted: rat plasma incubation up to 8 h. How it is done: The purpose of this example was to investigate the stability of the precursor Linifanib-C12-AA5 (compound 8) and the intermediate Linifanib-C12-Asp (compound 12) in plasma, liver homogenate and spleen homogenate (precursor Linifanib-C12-AA5 metabolizes into the intermediates Linifanib-C12-Asp and Linifanib; the intermediate Linifanib-C12-Asp is further metabolized to form Linifanib), and the metabolites were analyzed quantitatively, and the stability of the incubation system was verified with positive drugs, providing references for compound drug evaluation.
• Instrument: AP13000 LC/MS, ABI • Materials: Male SD rats (200-250 g), Beijing Vital River • Test samples: positive drugs and their metabolites M1 and M2, Linifanib-C12-AA5 and its metabolites Linifanib-C12-ASP and Linifanib. 2. Stability study of Linifanib-C12-AA5 and Linifanib-C12-Asp • 2.1 Linifanib-C12-AA5 and Linifanib-C12-Asp plasma incubation stability study protocol Test animal • Type: SD rat; Quantity: 2 • Sex: male; weight: 200-250 g;
Experimental Procedure • 1. Animal blood was collected, blood samples were placed in EDTA anticoagulation tubes, centrifuged at 3000 g for 15 min at 4° C., plasma was separated, and 2 blood samples were mixed in equal volumes; • 2. Weighed and dissolved a certain amount of Linifanib-C12-AA5/Linifanib-C12-Asp in DMSO:MeOH (2:8), prepared 200 μM mother liquor by purity, and added the compound to the plasma to a final concentration of 2 μg/mL. The organic ratio in the system was not more than 0.5%. • 3. Incubated in a 37° C. water bath and set the sampling points to 0, 0.5, 1, 2, 4, 6, and 8 h. At each sampling point, 100 μL of each sample was added to 300 μL of acetonitrile (with internal standard) for precipitation, centrifuged at 12,000 rpm for 5 min, and 200 μL of supernatant was taken for analysis by LC-MS/MS. • 4. Configured the standard curve to quantify Linifanib, Linifanib-C12-Asp and residual Linifanib-C12-AA5. • 2.2 Linifanib-C12-AA5 and Linifanib-C12-Asp liver/spleen homogenate incubation stability study protocol Test animal • Type: SD rat; Quantity: 2 • Sex: Male; Weight: 200-250 g

Data set [11] has as its system 54 commercial tumor cell lines. The data set can be described thus: Cell proliferation assay (Alamar Blue), summary over the panel. The data set is classed as cell-based. The following applies: in almost all tumor cell lines. Here is the method:
as §2
2. Experimental Methods • 2.1 Cultivation of different cell lines • 54 cell lines were cultured in a culture medium containing fetal bovine serum and placed in a 5% CO 2 incubator at 37° C. for incubation. The cells were all grown in an adherent state, and the growth was observed under an inverted microscope, and subculture was performed when the cell confluence rate reached 80%-90%. The proportion and quantity of passage were determined by experimental needs. The ratio of subculture of this cell line was generally 1:2^˜1:3. • 2.2 inhibition effect on the proliferation of different tumor cell lines • Cell test: 54 cell lines in logarithmic growth phase were inoculated in 96-well culture plates at 500^˜1×10^4/well (the optimal seeding density of each cell line was determined in pre-experiment), After incubating at 37° C. for 4 h in a 5% CO2 humidification incubator, added 10 μL of compounds 1-12 or Linifanib to each well, and tested 9 drug concentration gradients for each compound (diluted from the highest concentration of the test by 3.16 times). The solubility of each compound was different at a starting concentration of 30 or 100 μM, respectively. The QC reference compound Doxorubicin was added simultaneously to each cell line test, and the final drug concentrations were 10, 3.16, 1, 0.31, 0.1, 0.03, 0.01, 0.003, and 0.001 μM, respectively. In addition, a positive control group (100% inhibition) and a negative control group (0% inhibition) were set at the same time. The drug group was repeated for 2 wells per concentration, and the positive control group and the negative control group were repeated for 6 wells. After the culture was continued for 6 days in the incubator, AlamarBlue test operation was followed; • AlamarBlue test procedure: Incubated with 10 μL of AlamarBlue reagent per well for 1-4 h, shook for 1-2 min, MD microplate reader EX: 560 nm, EM: 590 nm wavelength to measure fluorescence, recorded the results, calculated the cell inhibition rate of the compound of the invention. […]

As a reminder, the IC50 is the concentration that gives 50% inhibition. Take `Cc1ccc(F)c(NC(=O)Nc2ccc(-c3cccc4[nH]nc(N)c34)cc2)c1` [Linifanib, reference compound]: the IC50 was found to be 4.09 µM in [1]; 0.83 µM in data set [2]; 3.25 µM in data set [3]; 10.6 µM in data set [4]; 11.3 µM in [5]; 5.43 µM in data set [6]. The IC50 in [7] is 4.1 µM; in data set [8] it was 3.6 µM; in data set [9] (nearly half of the liver cancer cell lines (12/26, 46%), moderately sensitive) it was < 5 µM.

In the case of `Cc1ccc(F)c(NC(=O)Nc2ccc(-c3cccc4c3c(N)nn4C(=O)CCCCCCCCCCCNC(=O)C[C@H](N)C(=O)N[C@@H](CCC(=O)N[C@@H](CCC(=O)N[C@@H](CCC(=O)N[C@@H](CCC(=O)O)C(=O)O)C(=O)O)C(=O)O)C(=O)O)cc2)c1` [Compound 8], the IC50 was > 100 µM in [1]; 21.4 µM in data set [2]; 31.9 µM in data set [3]; 95.9 µM in data set [4]; > 100 µM in data set [5]; 39.6 µM in [6]. Further, the IC50 in [7] was determined as 26.9 µM; in [8], 42.7 µM. Further, in [10], the “production of the intermediates Linifanib-C12-Asp and Linifanib in plasma” value is “did not produce”. Also, the stability in plasma result in data set [10] is given as “stable in plasma”. In data set [9] (most of the liver cancer cell lines (15/26, 58%)), the “difference of IC50 values versus Linifanib” value is listed as “more than 8 times”.

Take `Cc1ccc(F)c(NC(=O)Nc2ccc(-c3cccc4c3c(N)nn4C(=O)C[C@H](N)C(=O)N[C@@H](CCC(=O)O)C(=O)O)cc2)c1` [Compound 1]: the IC50 in [1] stood at 5.5 µM; in data set [2], 0.45 µM; in data set [3], 4.42 µM; in data set [4], 2.62 µM; in data set [5], 5.47 µM; in [6], 5.35 µM. The half-maximal inhibitory concentration (IC50) was 1.82 µM in data set [7] and 7.59 µM in data set [8]. Besides, in data set [11], the “IC50 values compared with Linifanib” value is “close to those of Linifanib”.

Consider `Cc1ccc(F)c(NC(=O)Nc2ccc(-c3cccc4c3c(N)nn4C(=O)C[C@H](N)C(=O)O)cc2)c1` [Compound 10], for which the IC50 in [1] was determined as 5.31 µM; in data set [2] it was 0.37 µM; in data set [3], 3.47 µM; in data set [4], 2.31 µM; in [5], 5.13 µM; in data set [6], 4.38 µM. Moreover, the IC50 turned out to be 1.93 µM in data set [7] and 6.31 µM in data set [8]. Further, the “IC50 values compared with Linifanib” value in [11] was “close to those of Linifanib”.

Consider `Cc1ccc(F)c(NC(=O)Nc2ccc(-c3cccc4c3c(N)nn4C(=O)C[C@H](N)C(=O)N[C@@H](CCC(=O)N[C@@H](CCC(=O)N[C@@H](CCC(=O)N[C@@H](CCC(=O)O)C(=O)O)C(=O)O)C(=O)O)C(=O)O)cc2)c1` [Compound 2], for which the IC50 in data set [1] was 5.21 µM; in data set [2], 0.64 µM; in data set [3] it was 6.71 µM; in [4], 5.83 µM; in data set [5] it was 6.34 µM; in [6] it was 7.26 µM. The values for the half-maximal inhibitory concentration (IC50) in [7] and in [8] were 2.84 µM and 8.45 µM, respectively. Further, the “IC50 values compared with Linifanib” value in data set [11] was “close to those of Linifanib”.
